≈ marks a conversion by molar mass, not a printed value.
Columns and labels:
[1] = Phase 2a RA study: safety (adverse events)
Protocol: Patient eligibility was assessed based on the following criteria: (i) a diagnosis of adult onset RA (ACR/EULAR classification criteria); (ii) DAS28-CRP≥3.2 defined as moderate to high disease activity; (iii) moderately to severely active RA defined by at least 4/28 tender and 4/28 swollen joints; (iv) hsCRP≥5 mg/L at screening; (v) definitive intra-articular synovitis or osteitis defined as a score of 1 or greater on a Hand-Wrist MM (using RAMRIS); (vi) stable MTX dose (defined as 7.5 mg to 25 mg weekly) for at least 4 weeks prior to the screening visit. […] Study medications were administered orally for 12 weeks. Patients were required to remain on a stable dose of MTX (7.5 mg to 25 mg/week) and a stable dose of folic or folinic acid (≥5 mg/week) for the duration of the study.
Patients attended clinic visits on Days 7, 14, 28, 42, 56, and 84 (±1 day) for safety, efficacy, PK, and PD assessments. The morning dose of study medication was administered in the clinic on each study visit day.
At the completion of 4 weeks of treatment (Day 28), each patient's safety data (e.g., AEs, laboratory values, vital signs, and ECGs) will be reviewed to ensure that the patient is tolerating the treatment regimen and is deemed suitable to continue treatment for the next 8 weeks.

IL-6 [2] = experiment: R848 stimulated IL-6 production in human whole blood; format: cell-based; conditions: R848, 0.5 ug/mL, 5 hr
Protocol: Human whole blood assays were performed as described above with the exceptions listed below. […] Compounds were serially diluted in 100% DMSO (Sigma-Aldrich, D2650) followed by a 10× dilution into RPMI (Gibco, 11875). After the one-hour incubation with the compounds or vehicle, 2 μL of R848 (InvivoGen, tlrl-r848) in RPMI (Gibco, 11875) was added for a final concentration of 0.5 μg/mL to each well except for the no stimulus wells. After five hours of incubation with R848, plasma was harvested and assayed for TNF-α, IL-1β, IL-6 and IL-8 using Meso Scale Discovery Technology V-plex human cytokine kits according to the kit protocol.

IL-6 [3] = experiment: IL-1β stimulated IL-6 production in human whole blood; format: cell-based
Protocol: Compounds were serially diluted in 100% DMSO (Sigma-Aldrich, D2650) followed by a 10× dilution into RPMI (Gibco, 11875). After the one-hour incubation with the compounds or vehicle, 2 μL of IL-1β (R&D, 201-LB-010) in RPMI (Gibco, 11875) was added for a final concentration of 0.5 μg/mL to each well except for the no stimulus wells. […]

[4] = in vivo; cited from earlier work
[5] = Phase 1 SAD/MAD safety and tolerability in healthy subjects (incl. 80/120 mg BID extension)
Protocol: Single ascending dose (SAD) cohorts.
Multiple ascending dose (MAD) cohorts. […] Subjects were admitted to the clinical facility on day −1 and remained at the site until 72 hours after the morning dose on day 7.
Safety and Tolerability Assessments. Adverse events, clinical laboratory tests, vital signs, an electrocardiogram, Holter monitoring, and physical examination results were evaluated for each subject in both parts of the study.
Methods: Safety, pharmacokinetics (PK) and pharmacodynamics (PD) were assessed in two cohorts of subjects in a randomized, observer-blind, placebo-controlled study in male and female healthy subjects aged 18-55 (n=77). The study consisted of twenty (20) subjects enrolled into 2 cohorts. […] The final dose was administered in the morning on Day 7. Blood samples were obtained Day 1—before dosing, Day 1—4 hours after dosing and Day 1—12 hours after dosing and Day 7—before dosing, Day 7—4 hours after dosing, day 7—12 hour after dosing and Day 7—24 hours after dosing for each subject.

[6] = all ATI-450 SAD and MAD cohorts, 3/48
[7] = all ATI-450 SAD and MAD cohorts, n = 48

For `Cc1cnc(-c2ccnc(C(C)(C)O)n2)cc1-n1c(C)cc(OCc2ncc(F)cc2F)c(Cl)c1=O` (single isomer, unassigned) [ATI-450, 3-chloro-4-((3,5-difluoropyridin-2-yl)methoxy)-2′-(2-(2-hydroxypropan-2-yl)pyrimidin-4-yl)-5′,6-dimethyl-2H-[1,4′-bipyridin]-2-one], the tolerability ([1]; 50 mg BID plus MTX, 12 weeks) was “very well tolerated, with no serious or severe adverse events reported”, the “Abnormal ECG, Mild, n (%)” value ([1]; 50 mg BID, RA patients, n = 16) was 1 (6.25) and the “Abnormal ECG, Moderate, n (%)” value ([1]; 50 mg BID, RA patients, n = 16) was 0. The “Blood cholesterol increased, Mild, n (%)” value ([1]; 50 mg BID, RA patients, n = 16) was 1 (6.25), the “Blood cholesterol increased, Moderate, n (%)” value ([1]; 50 mg BID, RA patients, n = 16) was 0 and the “Blood creatine phosphokinase increased, Mild, n (%)” value ([1]; 50 mg BID, RA patients, n = 16) was 0. The “Blood creatine phosphokinase increased, Moderate, n (%)” value ([1]; 50 mg BID, RA patients, n = 16) was 1 (6.25), the “Constipation, Mild, n (%)” value ([1]; 50 mg BID, RA patients, n = 16) was 1 (6.25) and the “Constipation, Moderate, n (%)” value ([1]; 50 mg BID, RA patients, n = 16) was 0. For the same molecule, the “Ear infection, Mild, n (%)” value ([1]; 50 mg BID, RA patients, n = 16) was 1 (6.25), the “Ear infection, Moderate, n (%)” value ([1]; 50 mg BID, RA patients, n = 16) was 0 and the “Essential hypertension, Mild, n (%)” value ([1]; 50 mg BID, RA patients, n = 16) was 0. The “Essential hypertension, Moderate, n (%)” value ([1]; 50 mg BID, RA patients, n = 16) was 1 (6.25), the “Hyperliidaemia, Mild, n (%)” value ([1]; 50 mg BID, RA patients, n = 16) was 0 and the “Hyperliidaemia, Moderate, n (%)” value ([1]; 50 mg BID, RA patients, n = 16) was 1 (6.25). For the same molecule, the “Hypokalaemia, Mild, n (%)” value ([1]; 50 mg BID, RA patients, n = 16) was 0, the “Hypokalaemia, Moderate, n (%)” value ([1]; 50 mg BID, RA patients, n = 16) was 1 (6.25) and the “Ligament sprain, Mild, n (%)” value ([1]; 50 mg BID, RA patients, n = 16) was 1 (6.25). The “Ligament sprain, Moderate, n (%)” value ([1]; 50 mg BID, RA patients, n = 16) was 0, the “Low density lipoprotein increased, Mild, n (%)” value ([1]; 50 mg BID, RA patients, n = 16) was 1 (6.25) and the “Low density lipoprotein increased, Moderate, n (%)” value ([1]; 50 mg BID, RA patients, n = 16) was 0. For the same molecule, the “Mouth ulceration, Mild, n (%)” value ([1]; 50 mg BID, RA patients, n = 16) was 1 (6.25), the “Mouth ulceration, Moderate, n (%)” value ([1]; 50 mg BID, RA patients, n = 16) was 0 and the “Palpitations, Mild, n (%)” value ([1]; 50 mg BID, RA patients, n = 16) was 1 (6.25). The “Palpitations, Moderate, n (%)” value ([1]; 50 mg BID, RA patients, n = 16) was 0, the “Rash erythematous, Mild, n (%)” value ([1]; 50 mg BID, RA patients, n = 16) was 1 (6.25) and the “Rash erythematous, Moderate, n (%)” value ([1]; 50 mg BID, RA patients, n = 16) was 0. For the same molecule, the “Sinusitis, Mild, n (%)” value ([1]; 50 mg BID, RA patients, n = 16) was 0, the “Sinusitis, Moderate, n (%)” value ([1]; 50 mg BID, RA patients, n = 16) was 1 (6.25) and the “Skin abrasion, Mild, n (%)” value ([1]; 50 mg BID, RA patients, n = 16) was 1 (6.25). The “Skin abrasion, Moderate, n (%)” value ([1]; 50 mg BID, RA patients, n = 16) was 0, the “Urinary tract infection, Mild, n (%)” value ([1]; 50 mg BID, RA patients, n = 16) was 0 and the “Urinary tract infection, Moderate, n (%)” value ([1]; 50 mg BID, RA patients, n = 16) was 2 (12.5). For the same molecule, the “Ventricular extrasystoles, Mild, n (%)” value ([1]; 50 mg BID, RA patients, n = 16) was 1 (6.25), the “Ventricular extrasystoles, Moderate, n (%)” value ([1]; 50 mg BID, RA patients, n = 16) was 0 and the “White blood cell count increased, Mild, n (%)” value ([1]; 50 mg BID, RA patients, n = 16) was 1 (6.25). The “White blood cell count increased, Moderate, n (%)” value ([1]; 50 mg BID, RA patients, n = 16) was 0, the IC50 (IL-6 [2]) was 79.2 ± 17.2 nM and the IC50 (IL-6 [3]; Human Whole Blood, IL-1β, 10 ng/mL, 5 hr) was 11.1 ± 3.8 nM. For the same molecule, the IC80 (IL-6 [3]; human whole blood) was 0.041 ± 0.02 µg/mL (≈ 0.0798 µM), the “effect in rat streptococcal cell wall arthritis model” value [4] was “joint protective effects and preserved bone mineral density” and the “subjects with TEAEs considered related to the study drug” value (“subjects with TEAEs considered related” for short) ([5]; 10 mg BID cohort, 1 of 8) was 13%. The “subjects with TEAEs considered related” value ([5]; 30 mg BID cohort, 5 of 8) was 63%, the “subjects with TEAEs considered related” value ([5]; 50 mg BID cohort, 3 of 8) was 38% and the neutrophils ([5]; 50 mg BID, day 7 (baseline 3318.4 cells/μL)) was 2514.4 cells/μL. For the same molecule, the “mean reduction in neutrophils” value ([5]; 50 mg BID, day 7 vs baseline) was 24%, the “Constipation, AE, n (%)” value ([5]; 80 mg BID, 7 days, n = 8) was 1 (14%) and the “Dizziness, AE, n (%)” value ([5]; 80 mg BID, 7 days, n = 8) was 2 (25%). For the same molecule, the “Headache, AE, n (%)” value ([5]; 80 mg BID, 7 days, n = 8) was 2 (25%), the “Xerosis, AE, n (%)” value ([5]; 80 mg BID, 7 days, n = 8) was 1 (13%) and the tolerability ([5]; 80 mg and 120 mg BID, 7 days) was “well tolerated with no severe adverse effects reported”. For the same molecule, the “Abdominal Pain, AE, n (%)” value ([5]; 120 mg BID, 7 days, n = 8) was 1 (13%), the “Dizziness, AE, n (%)” value ([5]; 120 mg BID, 7 days, n = 8) was 6 (75%) and the “Headache, AE, n (%)” value ([5]; 120 mg BID, 7 days, n = 8) was 7 (88%). The “Loose stools, AE, n (%)” value ([5]; 120 mg BID, 7 days, n = 8) was 1 (13%), the “Nausea, AE, n (%)” value ([5]; 120 mg BID, 7 days, n = 8) was 2 (25%) and the “Parasthesia, AE, n (%)” value ([5]; 120 mg BID, 7 days, n = 8) was 2 (25%). The “Pharyngitis, AE, n (%)” value ([5]; 120 mg BID, 7 days, n = 8) was 1 (13%), the “Xerosis, AE, n (%)” value ([5]; 120 mg BID, 7 days, n = 8) was 5 (63%) and the “neutrophils, laboratory change” value ([5]; MAD cohort, maximum effect Day 2 to Day 5) was “dose dependent reduction in neutrophils”. The “character of TEAEs” value ([5]; MAD cohorts 10-50 mg BID) was “mild, transient, and resolved without sequelae”, the “deaths, serious adverse events” value ([5]; MAD cohorts 10-50 mg BID) was “no deaths or SAEs” and the “subjects with TEAEs considered related” value ([5]; MAD cohorts 10-50 mg BID, 9 of 24) was 38%. The “subjects reporting TEAEs” value ([5]; MAD cohorts 10-50 mg BID, 12 of 24) was 50%, the “vital signs, electrocardiograms, clinical laboratory values” ([5]; SAD and MAD cohorts) was “No clinically significant findings” and the “character of TEAEs” value ([5]; SAD cohorts) was “mild, transient, and resolved without sequelae”. For the same molecule, the “deaths, serious adverse events, discontinuations” value ([5]; SAD cohorts) was “No deaths or serious adverse events (SAEs)”, the “subjects with TEAEs considered related” value ([5]; SAD cohorts, 4 of 24) was 17% and the “subjects reporting TEAEs” value ([5]; SAD cohorts, 7 of 24) was 29%. For the same molecule, the “constipation, subjects with adverse event” value [5, 6] was 6.3%, the “upper respiratory tract infection, subjects with adverse event” value [5, 6] was 6.3% and the “dizziness, subjects with adverse event” value ([5]; all ATI-450 SAD and MAD cohorts, 6/48) was 12.5%. The “Abdominal pain, treatment-emergent adverse event, n subjects” value [5, 7] was 2, the “Constipation, treatment-emergent adverse event, n subjects” value [5, 7] was 3 and the “Dizziness, treatment-emergent adverse event, n subjects” value [5, 7] was 6. For the same molecule, the “Headache, treatment-emergent adverse event, n subjects” value [5, 7] was 10, the “Nausea, treatment-emergent adverse event, n subjects” value [5, 7] was 2 and the “Upper respiratory tract infection, treatment-emergent adverse event, n subjects” value [5, 7] was 3. For the same molecule, the “Vomiting, treatment-emergent adverse event, n subjects” value [5, 7] was 0, the “subjects with TEAEs considered related” value ([5]; single dose 10 mg cohort) was 0 subjects and the “subjects with TEAEs considered related” value ([5]; single dose 30 mg cohort) was 33%. For the same molecule, the “subjects with TEAEs considered related” value ([5]; single dose 50 mg cohort) was 17%, the “subjects with TEAEs considered related” value ([5]; single dose 100 mg cohort) was 1 subject and the safety and tolerability ([5]; single doses up to 100 mg, multiple doses up to 50 mg BID for 7 days) was “generally safe and well tolerated”.
